# Values quoted from earlier work as cited in patent publication US5908840A, “Hetero-biaryl-pyridoquinazolinone derivatives as anti-cancer agents” (American Cyanamid Company, priority 1997, dated 1999).
# Legend:
# [1] = Denny et al., Mutation Research 232: 233 (1990)
# [2] = Denny et al.; Ebeid et al.
# [3] = tested on: P388; conditions: Denny et al., Mutation Research 232: 233 (1990)
structure (smiles),measurement,setting,value
"CN(C)CCNC(=O)c1cccn2c(=O)c3ccccc3nc12 [I, N-[2-(dimethylamino)ethyl]-11-oxo-11H-pyrido[2,1-b]quinalzoline-6-carboxamide]",mutagenic activity,[1],mutagenic activity
same,in vitro activity,[2],some in vitro activity
same,activity in a P388 mouse model,[3],inactive
